Source: ChEMBL document CHEMBL5649169 (ChemMedChem, 2018)

How the values were obtained:
[1] = biological target: Serine/threonine-protein kinase mTOR (Homo sapiens) (UniProt P42345); further: assay method not described here
[2] = biological target: Translocon-associated protein subunit delta (Homo sapiens) (UniProt P51571); further: assay method not described here
[3] = biological target: Cytoplasmic dynein 1 light intermediate chain 1 (Homo sapiens) (UniProt Q9Y6G9); further: assay method not described here
[4] = biological target: Signal recognition particle subunit SRP68 (Homo sapiens) (UniProt Q9UHB9); further: assay method not described here
[5] = biological target: Small ribosomal subunit protein uS19 (Homo sapiens) (UniProt P62841); further: assay method not described here
[6] = biological target: Ubiquitin carboxyl-terminal hydrolase 39 (Homo sapiens) (UniProt Q53GS9); further: assay method not described here
[7] = biological target: AP-1 complex subunit gamma-1 (Homo sapiens) (UniProt O43747); further: assay method not described here
[8] = biological target: YTH domain-containing family protein 2 (Homo sapiens) (UniProt Q9Y5A9); further: assay method not described here
[9] = biological target: Paired amphipathic helix protein Sin3a (Homo sapiens) (UniProt Q96ST3); further: assay method not described here
[10] = biological target: Profilin-1 (Homo sapiens) (UniProt P07737); further: assay method not described here
[11] = biological target: ATP synthase peripheral stalk subunit d, mitochondrial (Homo sapiens) (UniProt O75947); further: assay method not described here
Elongin-C (Homo sapiens) = Elongin-C (Homo sapiens) (UniProt Q15369); further: assay method not described here
[12] = biological target: Dolichyl-diphosphooligosaccharide--protein glycosyltransferase subunit KCP2 (Homo sapiens) (UniProt Q8N6L1); further: assay method not described here
[13] = biological target: Nucleosome assembly protein 1-like 4 (Homo sapiens) (UniProt Q99733); further: assay method not described here
[14] = biological target: RNA polymerase-associated protein CTR9 homolog (Homo sapiens) (UniProt Q6PD62); further: assay method not described here
[15] = biological target: Endoplasmin (Homo sapiens) (UniProt P14625); further: assay method not described here
[16] = biological target: Heterogeneous nuclear ribonucleoprotein U (Homo sapiens) (UniProt Q00839); further: assay method not described here
[17] = biological target: Argininosuccinate synthase (Homo sapiens) (UniProt P00966); further: assay method not described here
[18] = biological target: 2-oxoglutarate dehydrogenase complex component E1 (Homo sapiens) (UniProt Q02218); further: assay method not described here
[19] = biological target: Small ribosomal subunit protein uS4 (Homo sapiens) (UniProt P46781); further: assay method not described here
[20] = biological target: Keratin, type I cytoskeletal 18 (Homo sapiens) (UniProt P05783); further: assay method not described here
[21] = biological target: Mitotic deacetylase-associated SANT domain protein (Homo sapiens) (UniProt Q6PJG2); further: assay method not described here
[22] = biological target: E3 ubiquitin-protein ligase RNF5 (Homo sapiens) (UniProt Q99942); further: assay method not described here
Ephrin type-A receptor 4 = Ephrin type-A receptor 4 (Homo sapiens, UniProt P54764); assay: Inhibition of Nano Luc-fused full length C-terminal EPHA4 (unknown origin) expressed in HEK293T cells using NanoGlo as substrate incubated for 2 hrs in presence of tracer by NanoBRET assay; type: cell-based
[23] = biological target: NUAK family SNF1-like kinase 2 (Homo sapiens) (UniProt Q9H093); further: assay method not described here
[24] = biological target: Serine/threonine-protein phosphatase 2A 65 kDa regulatory subunit A alpha isoform (Homo sapiens) (UniProt P30153); further: assay method not described here
[25] = biological target: Protein kinase C zeta type (Homo sapiens) (UniProt Q05513); further: assay method not described here
[26] = biological target: Serine/threonine-protein kinase 26 (Homo sapiens) (UniProt Q9P289); further: assay method not described here
[27] = biological target: AP-1 complex subunit sigma-1A (Homo sapiens) (UniProt P61966); further: assay method not described here
[28] = biological target: AP-3 complex subunit delta-1 (Homo sapiens) (UniProt O14617); further: assay method not described here
[29] = biological target: Protein YIF1A (Homo sapiens) (UniProt O95070); further: assay method not described here
[30] = biological target: Desmoglein-1 (Homo sapiens) (UniProt Q02413); further: assay method not described here
[31] = biological target: La-related protein 7 (Homo sapiens) (UniProt Q4G0J3); further: assay method not described here
[32] = biological target: Small ribosomal subunit protein mS23 (Homo sapiens) (UniProt Q9Y3D9); further: assay method not described here
[33] = biological target: Large ribosomal subunit protein bL21m (Homo sapiens) (UniProt Q7Z2W9); further: assay method not described here
[34] = biological target: Ribonucleoside-diphosphate reductase large subunit (Homo sapiens) (UniProt P23921); further: assay method not described here
[35] = biological target: Translation initiation factor eIF2B subunit epsilon (Homo sapiens) (UniProt Q13144); further: assay method not described here
[36] = biological target: Transaldolase (Homo sapiens) (UniProt P37837); further: assay method not described here
[37] = biological target: Solute carrier family 25 member 3 (Homo sapiens) (UniProt Q00325); further: assay method not described here
Erlin-2 (Homo sapiens) = Erlin-2 (Homo sapiens) (UniProt O94905); further: assay method not described here
[38] = biological target: Hypoxia up-regulated protein 1 (Homo sapiens) (UniProt Q9Y4L1); further: assay method not described here
[39] = biological target: Histone H1.2 (Homo sapiens) (UniProt P16403); further: assay method not described here
[40] = biological target: Probable rRNA-processing protein EBP2 (Homo sapiens) (UniProt Q99848); further: assay method not described here
[41] = biological target: Palmitoyl-protein thioesterase 1 (Homo sapiens) (UniProt P50897); further: assay method not described here
[42] = biological target: 3-hydroxyacyl-CoA dehydrogenase type-2 (Homo sapiens) (UniProt Q99714); further: assay method not described here
Wherever ED50 is given: assay method not described here.

Chain of Cytoplasmic dynein 1 light intermediate chain 1 (Homo sapiens) (Q9Y6G9 whole entry): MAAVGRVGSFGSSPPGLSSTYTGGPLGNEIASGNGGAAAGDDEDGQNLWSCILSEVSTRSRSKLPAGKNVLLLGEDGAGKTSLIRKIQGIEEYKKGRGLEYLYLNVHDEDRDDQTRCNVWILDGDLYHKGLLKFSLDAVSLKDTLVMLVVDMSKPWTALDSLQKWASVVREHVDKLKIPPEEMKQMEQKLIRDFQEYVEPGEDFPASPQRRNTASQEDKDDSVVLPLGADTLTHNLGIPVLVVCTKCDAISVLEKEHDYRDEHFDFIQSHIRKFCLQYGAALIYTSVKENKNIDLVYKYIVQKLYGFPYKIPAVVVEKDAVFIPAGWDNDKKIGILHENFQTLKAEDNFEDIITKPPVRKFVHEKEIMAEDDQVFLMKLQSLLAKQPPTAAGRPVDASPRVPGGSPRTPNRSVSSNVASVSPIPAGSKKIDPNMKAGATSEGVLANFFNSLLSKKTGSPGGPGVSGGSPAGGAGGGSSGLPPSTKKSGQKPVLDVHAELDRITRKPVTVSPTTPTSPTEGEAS
Chain of ATP synthase peripheral stalk subunit d, mitochondrial (Homo sapiens) (O75947 whole entry): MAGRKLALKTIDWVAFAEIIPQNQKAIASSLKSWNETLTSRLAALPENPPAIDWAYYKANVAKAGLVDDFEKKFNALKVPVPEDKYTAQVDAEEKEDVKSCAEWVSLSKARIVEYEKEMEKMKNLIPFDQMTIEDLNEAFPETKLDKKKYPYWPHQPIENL
Chain of Ephrin type-A receptor 4 (P54764 whole entry, the tested form may be a part): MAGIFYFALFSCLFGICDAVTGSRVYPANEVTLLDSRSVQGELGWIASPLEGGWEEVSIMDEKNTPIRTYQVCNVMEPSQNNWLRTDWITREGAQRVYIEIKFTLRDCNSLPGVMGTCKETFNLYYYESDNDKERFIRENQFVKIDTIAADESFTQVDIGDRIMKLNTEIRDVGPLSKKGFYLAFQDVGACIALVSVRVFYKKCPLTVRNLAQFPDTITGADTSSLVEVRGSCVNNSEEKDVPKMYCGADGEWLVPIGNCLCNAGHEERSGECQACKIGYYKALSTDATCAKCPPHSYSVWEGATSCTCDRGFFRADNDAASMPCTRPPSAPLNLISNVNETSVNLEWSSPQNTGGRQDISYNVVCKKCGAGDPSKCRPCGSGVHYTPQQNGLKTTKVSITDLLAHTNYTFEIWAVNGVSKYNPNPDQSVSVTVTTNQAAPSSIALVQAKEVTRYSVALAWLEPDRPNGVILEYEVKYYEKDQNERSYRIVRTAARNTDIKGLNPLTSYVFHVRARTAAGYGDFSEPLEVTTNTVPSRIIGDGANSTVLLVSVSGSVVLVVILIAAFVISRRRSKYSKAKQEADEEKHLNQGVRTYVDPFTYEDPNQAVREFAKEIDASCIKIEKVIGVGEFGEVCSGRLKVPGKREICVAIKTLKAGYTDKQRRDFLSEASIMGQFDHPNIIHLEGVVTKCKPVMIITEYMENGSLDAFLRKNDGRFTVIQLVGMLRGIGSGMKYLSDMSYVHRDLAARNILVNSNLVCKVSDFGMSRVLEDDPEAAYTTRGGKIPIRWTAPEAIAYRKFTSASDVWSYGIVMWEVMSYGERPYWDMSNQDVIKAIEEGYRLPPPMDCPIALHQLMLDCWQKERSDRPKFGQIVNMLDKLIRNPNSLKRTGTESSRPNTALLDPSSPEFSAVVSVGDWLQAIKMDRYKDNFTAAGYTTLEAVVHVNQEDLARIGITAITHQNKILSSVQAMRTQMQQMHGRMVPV
Chain of Argininosuccinate synthase (Homo sapiens) (P00966 whole entry): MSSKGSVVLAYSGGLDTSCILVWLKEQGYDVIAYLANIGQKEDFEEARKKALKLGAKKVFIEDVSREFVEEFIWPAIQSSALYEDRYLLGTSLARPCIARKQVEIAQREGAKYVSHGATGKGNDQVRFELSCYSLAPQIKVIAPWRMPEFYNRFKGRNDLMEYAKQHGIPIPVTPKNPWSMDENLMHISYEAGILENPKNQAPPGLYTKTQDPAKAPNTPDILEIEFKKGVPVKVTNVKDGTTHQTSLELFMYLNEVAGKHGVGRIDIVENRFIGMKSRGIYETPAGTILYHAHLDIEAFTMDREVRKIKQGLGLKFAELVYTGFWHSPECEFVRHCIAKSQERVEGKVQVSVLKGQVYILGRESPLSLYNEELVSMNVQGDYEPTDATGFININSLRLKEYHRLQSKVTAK
Chain of 2-oxoglutarate dehydrogenase complex component E1 (Homo sapiens) (Q02218 whole entry, one chain of several): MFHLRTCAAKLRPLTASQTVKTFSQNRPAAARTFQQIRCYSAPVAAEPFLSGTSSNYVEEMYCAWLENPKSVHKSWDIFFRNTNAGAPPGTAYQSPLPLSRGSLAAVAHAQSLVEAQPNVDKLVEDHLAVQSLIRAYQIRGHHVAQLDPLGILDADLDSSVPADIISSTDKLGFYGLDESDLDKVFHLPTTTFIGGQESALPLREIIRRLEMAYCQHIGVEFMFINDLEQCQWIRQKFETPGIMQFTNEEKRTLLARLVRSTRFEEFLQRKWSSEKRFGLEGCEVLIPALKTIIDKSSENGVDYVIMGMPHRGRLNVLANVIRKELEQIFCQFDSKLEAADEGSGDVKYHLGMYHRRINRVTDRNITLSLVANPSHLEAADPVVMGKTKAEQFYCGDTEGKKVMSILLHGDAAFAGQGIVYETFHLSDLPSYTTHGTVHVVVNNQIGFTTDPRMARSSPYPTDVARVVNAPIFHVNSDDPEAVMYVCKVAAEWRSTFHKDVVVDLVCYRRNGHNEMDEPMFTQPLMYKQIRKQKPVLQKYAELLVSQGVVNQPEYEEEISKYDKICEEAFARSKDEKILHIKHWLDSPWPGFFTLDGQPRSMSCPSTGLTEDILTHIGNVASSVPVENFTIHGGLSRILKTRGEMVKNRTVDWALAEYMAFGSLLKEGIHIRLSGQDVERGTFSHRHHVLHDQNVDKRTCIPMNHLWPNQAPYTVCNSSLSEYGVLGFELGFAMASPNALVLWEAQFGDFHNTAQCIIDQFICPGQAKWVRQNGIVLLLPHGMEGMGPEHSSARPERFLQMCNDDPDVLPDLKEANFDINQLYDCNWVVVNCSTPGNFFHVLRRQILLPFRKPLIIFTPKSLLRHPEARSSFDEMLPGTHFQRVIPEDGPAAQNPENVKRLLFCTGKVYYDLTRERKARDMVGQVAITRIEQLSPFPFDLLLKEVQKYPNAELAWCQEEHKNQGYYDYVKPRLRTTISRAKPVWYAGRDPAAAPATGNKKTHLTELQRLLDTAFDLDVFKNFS
Chain of Endoplasmin (Homo sapiens) (P14625 whole entry): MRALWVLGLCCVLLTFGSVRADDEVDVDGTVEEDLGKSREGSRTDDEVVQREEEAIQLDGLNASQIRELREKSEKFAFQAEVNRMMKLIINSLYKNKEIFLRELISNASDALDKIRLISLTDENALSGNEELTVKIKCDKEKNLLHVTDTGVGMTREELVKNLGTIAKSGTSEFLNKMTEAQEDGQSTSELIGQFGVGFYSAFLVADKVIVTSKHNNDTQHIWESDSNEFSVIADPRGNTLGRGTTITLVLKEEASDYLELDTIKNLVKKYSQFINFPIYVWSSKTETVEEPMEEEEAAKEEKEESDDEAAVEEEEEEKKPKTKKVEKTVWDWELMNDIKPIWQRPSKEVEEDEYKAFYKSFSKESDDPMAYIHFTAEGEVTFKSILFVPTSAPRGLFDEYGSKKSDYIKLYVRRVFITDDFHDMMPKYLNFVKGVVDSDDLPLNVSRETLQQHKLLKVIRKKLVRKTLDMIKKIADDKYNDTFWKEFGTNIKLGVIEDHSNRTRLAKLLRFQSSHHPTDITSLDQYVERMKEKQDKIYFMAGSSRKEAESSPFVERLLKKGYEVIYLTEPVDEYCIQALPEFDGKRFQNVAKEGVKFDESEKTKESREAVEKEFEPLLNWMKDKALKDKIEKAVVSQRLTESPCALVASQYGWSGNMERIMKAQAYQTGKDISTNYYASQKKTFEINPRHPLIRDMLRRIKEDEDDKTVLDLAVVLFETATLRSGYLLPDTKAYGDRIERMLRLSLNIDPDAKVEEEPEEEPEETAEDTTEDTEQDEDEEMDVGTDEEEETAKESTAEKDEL
Chain of Heterogeneous nuclear ribonucleoprotein U (Homo sapiens) (Q00839 whole entry): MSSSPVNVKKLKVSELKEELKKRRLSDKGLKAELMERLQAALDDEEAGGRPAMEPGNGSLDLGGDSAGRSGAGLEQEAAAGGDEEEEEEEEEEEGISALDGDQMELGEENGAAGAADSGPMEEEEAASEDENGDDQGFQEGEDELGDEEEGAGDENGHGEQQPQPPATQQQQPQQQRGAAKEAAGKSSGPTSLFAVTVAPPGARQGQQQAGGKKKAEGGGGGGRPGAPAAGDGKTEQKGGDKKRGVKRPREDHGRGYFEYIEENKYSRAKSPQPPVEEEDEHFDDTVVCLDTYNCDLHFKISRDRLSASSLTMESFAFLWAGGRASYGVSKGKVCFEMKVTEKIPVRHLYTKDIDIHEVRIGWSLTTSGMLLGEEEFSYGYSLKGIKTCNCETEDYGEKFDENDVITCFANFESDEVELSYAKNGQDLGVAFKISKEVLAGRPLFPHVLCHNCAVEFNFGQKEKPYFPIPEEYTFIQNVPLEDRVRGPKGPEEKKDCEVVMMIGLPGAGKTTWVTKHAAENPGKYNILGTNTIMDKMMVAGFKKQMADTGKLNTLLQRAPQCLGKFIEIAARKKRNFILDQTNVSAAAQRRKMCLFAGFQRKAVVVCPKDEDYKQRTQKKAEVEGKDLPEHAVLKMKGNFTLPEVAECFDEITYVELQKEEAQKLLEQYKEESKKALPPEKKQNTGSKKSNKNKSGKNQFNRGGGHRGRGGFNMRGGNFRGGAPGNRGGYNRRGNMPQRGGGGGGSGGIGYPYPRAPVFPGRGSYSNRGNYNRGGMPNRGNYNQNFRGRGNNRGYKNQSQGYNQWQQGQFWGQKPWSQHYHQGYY
Chain of Elongin-C (Homo sapiens) (Q15369 whole entry, looked up): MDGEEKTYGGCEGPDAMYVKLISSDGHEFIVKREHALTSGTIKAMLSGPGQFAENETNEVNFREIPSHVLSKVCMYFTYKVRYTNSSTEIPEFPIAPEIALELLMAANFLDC
Chain of Dolichyl-diphosphooligosaccharide--protein glycosyltransferase subunit KCP2 (Homo sapiens) (Q8N6L1 whole entry): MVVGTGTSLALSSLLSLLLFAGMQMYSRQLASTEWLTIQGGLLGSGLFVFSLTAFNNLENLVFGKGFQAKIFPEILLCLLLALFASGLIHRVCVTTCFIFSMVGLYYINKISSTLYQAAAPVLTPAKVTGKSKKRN

| SMILES | ED50 [1] [µM] | ED50 [3] [µM] | ED50 [4] [µM] | ED50 [5] [µM] | ED50 [7] [µM] | ED50 [10] [µM] | ED50 [11] [µM] | ED50 (Elongin-C (Homo sapiens)) [µM] | ED50 [12] [µM] | ED50 [15] [µM] | ED50 [16] [µM] | ED50 [17] [µM] | ED50 [18] [µM] | ED50 [19] [µM] | ED50 [20] [µM] | IC50 (Ephrin type-A receptor 4) [µM] | ED50 [24] [µM] | ED50 [32] [µM] | ED50 [34] [µM] | other results |
| --- | --- | --- | --- | --- | --- | --- | --- | --- | --- | --- | --- | --- | --- | --- | --- | --- | --- | --- | --- | --- |
| Cc1ccc(C(=O)Nc2cccc(C(F)(F)F)c2)cc1Nc1nc(-c2cccnc2)nc2c1cnn2C | 11.6 | 0.0244 | 4.09 | 4.04 | 0.163 | 3.95 | 0.0727 | 122 | 0.164 | 3.47 | 0.0195 | 5.02 | 0.0247 | 10.7 | 7.35 | 0.0076 | 2 | 20.2 | 1.67 | ED50 (Homo sapiens): 11.8 µM; ED50 [2]: 217 µM; ED50 [6]: 95.8 µM; ED50 [8]: 0.0685 µM; ED50 [9]: 47.7 µM; ED50 [13]: 9.2 µM; ED50 [14]: 5.72 µM; ED50 [21]: 12.8 µM; ED50 [22]: 23.2 µM; ED50 [23]: 1.31 µM; ED50 [25]: 6210 µM; ED50 [26]: 0.27 µM; ED50 [27]: 0.163 µM; ED50 [28]: 0.00584 µM; ED50 [29]: 0.03 µM; ED50 [30]: 47.5 µM; ED50 [31]: 13.7 µM; ED50 [33]: 5.95 µM; ED50 [35]: 5.15 µM |
| Cc1ccc(C(=O)Nc2cccc(C(F)(F)F)c2)cc1Nc1nc(-c2cccnc2)nc2nn(C)cc12 | 0.443 | 0.897 | 0.0188 | 0.0149 | 1.37 | 3.98 | 0.0557 | 0.682 | 7.59 | 0.0559 | 13200 | 0.0579 | 12.5 | 0.000236 | 0.581 | ~10 | 203 | 11.4 | 5.74 | ED50 [36]: 0.359 µM; ED50 [37]: 8.08 µM; ED50 (Erlin-2 (Homo sapiens)): 3.06 µM; ED50 [38]: 0.0524 µM; ED50 [39]: 0.00894 µM; ED50 [40]: 0.0432 µM; ED50 [41]: 26.8 µM; ED50 [42]: 0.0508 µM |
